Laboratory results taken from patent publication US12257227B2, “Combination solution for treating chemotherapy refractory cancer” (1GLOBE BIOMEDICAL CO., LTD., priority 2018, dated 2025).

Experiments:
STAT3 pathway = conditions: according to WO2009/036059; read-out: STAT3 pathway activity, cellular IC50; cited from earlier work
p-STAT3 and β-catenin = test: Immunofluorescence of cancer stem cell markers in xenograft tumors; type: in vivo, mice; conditions: FIG. 5; tumors collected 24 hours after first dose; e.g. 50 mg/kg BID oral gavage
Protocol: Detection of the effects of 2-acetylnaphtho[2,3-b]furan-4,9-dione with or without paclitaxel on cancer stem cells for cancer stem cell markers in cancer xenograft animal models.
Human cancer cells were implanted subcutaneously into the right abdomen of 5 to 7 weeks athymic nude mice. When the tumor size reaches 200 mm^3, administer 2-acetylnaphtho[2,3-b]furan-4,9-dione (for example, 50 mg/kg (BID) by oral gavage (n=3/group)), paclitaxel, or 2-acetylnaphtho[2,3-b]furan-4,9-dione combined with paclitaxel to treat animals. Tumors were collected 24 hours after the first dose.
The harvested tissues were fixed in 3.7% neutral buffered formaldehyde at 4° C. overnight. Paraffin embedding were performed. Cut those into approximately 5 microns and fix them on positively charged glass slides. After baking and deparaffinization, the slides with tumor or control tissue were incubated in 10 mM sodium citrate (pH 6.0) for 10 minutes. After antigen retrieval, use primary antibody P-STAT3 (Rabbit, Cell Signaling, 1:100), β-catenin (Mouse, Santa Cruz, 1:400) to label slides overnight at 4° C., and then use Alexa Fluor Fluorescent dye-conjugated secondary antibody (1:500, Invitrogen). After mounting, the glass slides containing DAPI (Invitrogen) with Prolong mounting medium were detected under the 20× objective lens of a Zeiss fluorescence microscope, and analyzed with Zen software.

[1] = system: advanced pancreatic cancer; test: Phase II/III open label clinical study in patients who failed previous treatments (RECIST 1.1); type: in vivo, human; conditions: all patients receiving treatment
Text: In a phase II/III extended open label international multicenter experiment, search the effect of the compound of formula (I), 2-acetylnaphtho[2,3-b]furan-4,9-dioen combined with paclitaxel and a low dose of gemcitabine on patients with advanced pancreatic cancer who have failed previous treatments.
In the clinical study, we observed the anti-tumor activity and safety of 2-acetylnaphtho[2,3-b]furan-4,9-dione combined with paclitaxel weekly and a low dose of gemcitabine in patients with advanced pancreatic cancer who failed previous treatment. There are imaging disease progressions in patients who have received at least first-line systemic treatment in the past and failed. Previous treatments include gemcitabine-based single-agent or combination chemotherapy, and/or FOLFIRINOX/mFOLFIRINOX chemotherapy. […]
The remission and progression of the tumor were evaluated according to the RECIST 1.1 standard. […]

[2] = system: human pancreatic adenocarcinoma (Panc-1); test: Xenograft tumor mouse model, tumor size during treatment; type: in vivo, mice; conditions: FIG. 4; 2-acetylnaphtho[2,3-b]furan-4,9-dione 100 mg/kg PO bid; gemcitabine 80 mg/kg IV q3d; mean of five tumors
Protocol: The effects of 2-acetylnaphtho[2,3-b]furan-4,9-dione, the compound of formula (I), gemcitabine, and a combination of 2-acetylnaphtho[2,3-b]furan-4,9-dione and gemcitabine were studied. Specifically, immunosuppressed mice with established human pancreatic adenocarcinoma (Panc-1) were treated with vehicle control, 2-acetylnaphtho[2,3-b]furan-4,9-dione (100 mg/kg, PO, bid), gemcitabine (Gemzar, 80 mg/kg, IV, q3d), or the combination of 2-acetylnaphtho[2,3-b]furan-4,9-dione and gemcitabine. Tumor size was evaluated periodically during treatment. Each point represents the mean±SEM of five tumors.

Row | Compound | IC50 (STAT3 pathway) [nM] | expression (staining) of stem cell markers p-STAT3 and β-catenin (p-STAT3 and β-catenin) | adverse events related to the compound [1] | tumor growth (tumor volume) [2]
1 | CC(=O)c1cc2c(o1)C(=O)c1ccccc1C2=O [2-acetylnaphtho[2,3-b]furan-4,9-dione] | ~250 | significantly reduce the expression of stem cell markers p-STAT3 and β-catenin | mainly gastrointestinal adverse events | showed certain effects in inhibiting tumor growth
2 | Nc1ccn([C@@H]2O[C@H](CO)[C@@H](O)C2(F)F)c(=O)n1 [gemcitabine, reference compound] |  |  |  | showed certain effects in inhibiting tumor growth
3 | CC(=O)O[C@H]1C(=O)[C@@]2(C)[C@H]([C@H](OC(=O)c3ccccc3)[C@]3(O)C[C@H](OC(=O)[C@H](O)[C@@H](NC(=O)c4ccccc4)c4ccccc4)C(C)=C1C3(C)C)[C@]1(OC(C)=O)CO[C@@H]1C[C@@H]2O [paclitaxel, reference compound] |  | increased staining of stem cell markers |  | 
